US20250003877A1, “Silyl Bridged Dyes” (priority 2021, published 2025)
Like-named read-outs stand apart in the source and are kept apart here.

[1] = spirolactone dyes, table title says PBS, text (b560-b564) says maximal ε when ring-opened in EtOH/0.1% TFA

Structure (SMILES)	Brightness (ϕ × ε) (PBS)	Em (nm) (PBS)	Ex (nm) (PBS)	ε (M^−1 cm^−1) (PBS)	ϕ (quantum yield) (PBS, pH 7.4)	further results
Cc1ccccc1C1=C2C=CC(=[N+](C)C)C=C2[Si](C)(CCC(F)(F)F)c2cc(N(C)C)ccc21 (stereo not drawn) [Compound 010, N-(7-(Dimethylamino)-5-methyl-10-(o-tolyl)-5-(3,3,3-trifluoropropyl)dibenzo[b,e]silin-3(5H)-ylidene)-N-methylmethanaminium]	39,854	666	650	112,900 M^−1 cm^−1	0.35	–
CCCCCCCC[Si]1(CCCCCCCC)C2=CC(=[N+](C)C)C=CC2=C(c2ccccc2C)c2ccc(N(C)C)cc21 [Compound 011, N-(7-(Dimethylamino)-5,5-dioctyl-10-(o-tolyl)dibenzo[b,e]silin-3(5H)-ylidene)-N-methylmethanaminium]	–	666	651	low extinction coefficient	0.18	Brightness (ϕ × ε) (EtOH): 89,091; fluorescence and scatter (EtOH): bright fluorescence and no scatter peak; ε (M^−1 cm^−1) (EtOH): 156,300 M^−1 cm^−1; ϕ (quantum yield) (EtOH): 0.57; Rayleigh scatter (PBS, 1 μM concentration): pronounced Rayleigh scatter peak
Cc1ccccc1C1=C2C=CC(=[N+](C)C)C=C2[Si](C)([C@H]2CC3C=CC2C3)c2cc(N(C)C)ccc21 (stereo partly drawn) [Compound 013, N-(5-((2S)-Bicyclo[2.2.1]hept-5-en-2-yl)-7-(dimethylamino)-5-methyl-10-(o-tolyl)dibenzo[b,e]silin-3(5H)-ylidene)-N-methylmethanaminium]	60,800	666	649	160,000 M^−1 cm^−1	0.38	–
Cc1ccccc1C1=C2C=CC(=[N+](C)C)C=C2[Si]2(CCCCC2)c2cc(N(C)C)ccc21 [Compound 014, N-(7-(Dimethylamino)-10-(o-tolyl)-3H-spiro[dibenzo[b,e]siline-5,1′-silinan]-3-ylidene)-N-methylmethanaminium]	56,610	666	650	170,000 M^−1 cm^−1	0.33	–
C=C[Si]1(C=C)c2cc3c(cc2C(c2ccccc2C)=c2cc4c(cc21)=[N+](C)CCC4)CCCN3C [Compound 017, 1,11-Dimethyl-6-(o-tolyl)-13,13-divinyl-2,3,4,8,9,10,11,13-octahydrosilino[3,2-g:5,6-g′]diquinolin-1-ium]	75,104	702	683	234,700 M^−1 cm^−1	0.32	brighter than dimethylsilyl counterpart (vs 001 (for 002, 009) or vs 016 (for 017), PBS): 60%
Cc1ccccc1C1=c2cc3c(cc2[Si](c2ccccc2)(c2ccccc2)c2cc4c(cc21)CCCN4C)=[N+](C)CCC3 [Compound 018, 1,11-Dimethyl-13,13-diphenyl-6-(o-tolyl)-2,3,4,8,9,10,11,13-octahydrosilino[3,2-g:5,6-g′]diquinolin-1-ium]	41,524	710	690	148,300 M^−1 cm^−1	0.28	–
Cc1ccccc1C1=c2cc3c(cc2[Si](C)(CCCCl)c2cc4c(cc21)CCCN4C)=[N+](C)CCC3 (stereo not drawn) [Compound 019, 13-(3-Chloropropyl)-1,11,13-trimethyl-6-(o-tolyl)-2,3,4,8,9,10,11,13-octahydrosilino[3,2-g:5,6-g′]diquinolin-1-ium]	41,250	694	677	125,000 M^−1 cm^−1	0.33	–
C=C[Si]1(C=C)c2cc3c(cc2C(c2ccccc2C)=c2cc4c(cc21)=[N+](C)CC4)CCN3C [Compound 021, 1,9-Dimethyl-5-(o-tolyl)-11,11-divinyl-2,3,7,8,9,11-hexahydrosilino[3,2-f:5,6-f]diindol-1-ium]	17,693	728	702	136,100 M^−1 cm^−1	0.13	–
Cc1ccccc1C1=c2cc3c(cc2[Si](c2ccccc2)(c2ccccc2)c2cc4c(cc21)CCN4C)=[N+](C)CC3 [Compound 022, 1,9-Dimethyl-11,11-diphenyl-5-(o-tolyl)-2,3,7,8,9,11-hexahydrosilino[3,2-f:5,6-f′]diindol-1-ium]	12,870	737	710	117,000 M^−1 cm^−1	0.11	–
Cc1ccccc1C1=c2cc3c(cc2[Si](C)(CCCCl)c2cc4c(cc21)CCN4C)=[N+](C)CC3 (stereo not drawn) [Compound 023, 11-(3-Chloropropyl)-1,9,11-trimethyl-5-(o-tolyl)-2,3,7,8,9,11-hexahydrosilino[3,2-f:5,6-f]diindol-1-ium]	21,947	717	693	129,100 M^−1 cm^−1	0.17	–
Cc1ccccc1C1=C2C=CC(=[N+]3CCC3)C=C2[Si](C)(C)c2cc(N3CCC3)ccc21 [Compound 024, 1-(7-(Azetidin-l-yl)-5,5-dimethyl-10-(o-tolyl)dibenzo[b,e]silin-3(5H)-ylidene)azetidin-1-ium, reference compound]	55,460	663	649	118,000 M^−1 cm^−1	0.47	–
Cc1ccccc1C1=C2C=CC(=[N+]3CCC3)C=C2[Si](c2ccccc2)(c2ccccc2)c2cc(N3CCC3)ccc21 [Compound 025, 1-(7-(Azetidin-1-yl)-5,5-diphenyl-10-(o-tolyl)dibenzo[b,e]silin-3(5H)-ylidene)azetidin-1-ium]	63,222	680	663	154,200 M^−1 cm^−1	0.41	–
C=C[Si]1(C=C)C2=CC(=[N+]3CCC3)C=CC2=C(c2ccccc2C)c2ccc(N3CCC3)cc21 [Compound 026, 1-(7-(Azetidin-1-yl)-10-(o-tolyl)-5,5-divinyldibenzo[b,e]silin-3(5H)-ylidene)azetidin-1-ium]	48,268	673	658	109,700 M^−1 cm^−1	0.44	–
Cc1ccccc1C1=C2C=CC(=[N+]3CCC3)C=C2[Si](C)(CCCCl)c2cc(N3CCC3)ccc21 (stereo not drawn) [Compound 027, 1-(7-(Azetidin-1-yl)-5-(3-chloropropyl)-5-methyl-10-(o-tolyl)dibenzo[b,e]silin-3(5H)-ylidene)azetidin-1-ium]	81,683	668	651	166,700 M^−1 cm^−1	0.49	quantum yield (EtOH/0.1% TFA, mix of two isomers): 0.61; extinction coefficient (measured in PBS, mix of two isomers): ~4,000; emission (mix of two isomers): 670 nm; excitation wavelength (mix of two isomers): 653 nm
COc1cccc(OC)c1C1=C2C=CC(=[N+]3CCC3)C=C2[Si](C)(CCCCl)c2cc(N3CCC3)ccc21 (stereo not drawn) [Compound 029, 1-(7-(Azetidin-1-yl)-5-(3-chloropropyl)-10-(2,6-dimethoxyphenyl)-5-methyldibenzo[b,e]silin-3(5H)-ylidene)azetidin-1-ium]	86,400	670	653	180,000 M^−1 cm^−1	0.48	–
COc1cccc(OC)c1C1=C2C=CC(=[N+](C)C)C=C2[Si](C)(CCCCl)c2cc(N(C)C)ccc21 (stereo not drawn) [Compound 030, N-(5-(3-Chloropropyl)-10-(2,6-dimethoxyphenyl)-7-(dimethylamino)-5-methyldibenzo[b,e]silin-3(5H)-ylidene)-N-methylmethanaminium]	76,000	673	655	200,000 M^−1 cm^−1	0.38	–
O=C1OC2(c3ccccc31)c1ccc(N3CCC3)cc1[Si](c1ccccc1)(c1ccccc1)c1cc(N3CCC3)ccc12 [Compound 033, 3,7-Di(azetidin-1-yl)-5,5-diphenyl-3′H,5H-spiro[dibenzo[b,e]siline-10,1′-isobenzofuran]-3′-one]	–	–	–	–	–	extinction coefficient (maximum) in EtOH/0.1% TFA (EtOH/0.1% TFA): 80,000 M−1 cm−1; Em (nm) (SDS): 681 nm; Ex (nm) (SDS): 664 nm; extinction coefficient in anhydrous EtOH/0.1% TFA (anhydrous EtOH/0.1% TFA): ~124 000 M−1 cm-1; ε (M^−1 cm^−1) [1]: 80,000 M^−1 cm^−1
C[Si@]1(CCCCl)c2cc(N3CCC3)ccc2[C@@]2(OC(=O)c3ccccc32)c2ccc(N3CCC3)cc21 [Compound 035, (5s,10s)-3,7-Di(azetidin-1-yl)-5-(3-chloropropyl)-5-methyl-3′H,5H-spiro[dibenzo[b,e]siline-10,1′-isobenzofuran]-3′-one]	–	666	648	–	–	ε (M^−1 cm^−1) [1]: 183,000 M^−1 cm^−1
C[Si@]1(CCCCl)c2cc(N3CCC3)ccc2[C@]2(OC(=O)c3ccccc32)c2ccc(N3CCC3)cc21 [Compound 036, (5r,10r)-3,7-Di(azetidin-1-yl)-5-(3-chloropropyl)-5-methyl-3′H,5H-spiro[dibenzo[b,e]siline-10,1′-isobenzofuran]-3′-one]	–	666	648	–	0.53	ε (M^−1 cm^−1) [1]: 213,200 M^−1 cm^−1
CN(C)c1ccc2c(c1)[Si@](C)(CCCCl)c1cc(N(C)C)ccc1[C@]21OC(=O)c2ccccc21 [Compound 037, (5s,10s)-5-(3-Chloropropyl)-3,7-bis(dimethylamino)-5-methyl-3′H,5H-spiro[dibenzo[b,e]siline-10,1′-isobenzofuran]-3′-one]	–	665	650	–	0.40	extinction coefficient (maximum) in EtOH/0.1% TFA (EtOH/0.1% TFA): ~200,000 M−1 cm−1; ε (M^−1 cm^−1) [1]: 200,000 M^−1 cm^−1; Brightness (ϕ × ε) (spirolactone dyes, ϕ in PBS × ε in EtOH/0.1% TFA): 80,000; overall brightness (ϕ in PBS × ε in EtOH/0.1% TFA): ~80,000 M−1 cm−1
